Here are results for three compounds from paper PMC6274642, “Small molecule inhibitors reveal allosteric regulation of USP14 via steric blockade” (Cell Research, 2018).

One series has as its target T1, IsoT (Homo sapiens, UniProt P45974).
T1 construct: made in house
T1 sequence (P45974 1-858): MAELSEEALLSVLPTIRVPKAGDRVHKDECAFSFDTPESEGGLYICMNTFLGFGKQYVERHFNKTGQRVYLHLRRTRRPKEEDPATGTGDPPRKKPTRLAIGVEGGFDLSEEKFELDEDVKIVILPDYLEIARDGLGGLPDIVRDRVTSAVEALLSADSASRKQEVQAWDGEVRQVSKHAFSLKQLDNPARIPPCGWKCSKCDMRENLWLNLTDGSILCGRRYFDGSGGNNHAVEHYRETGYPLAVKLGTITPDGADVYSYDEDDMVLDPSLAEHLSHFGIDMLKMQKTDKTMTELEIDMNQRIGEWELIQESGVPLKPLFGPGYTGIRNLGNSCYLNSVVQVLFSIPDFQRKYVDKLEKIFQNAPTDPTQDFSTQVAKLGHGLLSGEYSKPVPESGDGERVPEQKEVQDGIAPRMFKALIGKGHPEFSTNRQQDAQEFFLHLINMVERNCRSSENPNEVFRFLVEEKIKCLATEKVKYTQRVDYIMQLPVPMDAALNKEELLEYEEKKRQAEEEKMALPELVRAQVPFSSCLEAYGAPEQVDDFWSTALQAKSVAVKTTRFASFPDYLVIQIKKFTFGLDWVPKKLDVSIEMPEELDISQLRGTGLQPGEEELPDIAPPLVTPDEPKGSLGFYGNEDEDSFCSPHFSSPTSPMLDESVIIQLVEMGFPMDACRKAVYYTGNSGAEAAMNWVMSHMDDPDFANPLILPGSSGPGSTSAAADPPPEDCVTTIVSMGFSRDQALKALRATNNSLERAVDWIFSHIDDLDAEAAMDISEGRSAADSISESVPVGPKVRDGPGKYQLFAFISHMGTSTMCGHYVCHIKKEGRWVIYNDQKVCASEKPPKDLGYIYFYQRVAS
In words: Ub-AMC hydrolysis assay, IsoT. It is filed as biochemical. To be noted: 1 μM Ub-AMC, 10 nM IsoT. An excerpt: Ub-AMC hydrolysis activity of IsoT.

In a further series the target is proteasome-bound USP14 (Homo sapiens, UniProt P54578). Put plainly: Ub-AMC hydrolysis assay, proteasome-activated USP14.
The next series in a line: Solubility. It counts as physicochemical. As to conditions: qualitative.
Another series has as its target T2, UCH-L3 (Homo sapiens, UniProt P15374).
T2 construct: made in house
T2 sequence (P15374 1-230): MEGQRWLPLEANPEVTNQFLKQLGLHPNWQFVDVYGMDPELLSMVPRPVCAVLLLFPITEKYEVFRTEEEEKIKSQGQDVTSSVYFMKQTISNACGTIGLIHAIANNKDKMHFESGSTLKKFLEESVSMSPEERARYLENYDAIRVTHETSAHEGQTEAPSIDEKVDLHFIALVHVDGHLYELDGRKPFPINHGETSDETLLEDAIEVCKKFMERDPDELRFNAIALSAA
In words: In vitro Ub-PA assay, UCH-L3. It counts as binding. As to conditions: 5 mM compound, 3 μM DUB protein, 12 μM Ub-PA. Here is the method: (§1) Linear kinetics of Ub-AMC hydrolysis are shown on the left, and the results of the statistical analysis are shown on the right. […] Error bars represent SDs. […] All the results were visualized by SDS-PAGE and Coomassie blue staining
(§2) For Ub-PA binding, 3 μM DUB protein (USP14^CAT, USP7^CAT, UCH-L1, or UCH-L3) was mixed with 12 μM Ub-PA for at least 1 h at room temperature in a reaction system containing 25 mM Tris-HCl (pH 7.5) and 150 mM NaCl. […] The DMSO concentration should be no more than 10% (v/v). All the samples were analyzed by SDS-PAGE, and the results are shown.

Another series has as its target T3, USP14 Y476A (Homo sapiens, UniProt P54578, Y476A).
T3 construct: Glutathione S-transferase (GST)-tagged full-length USP14; GST (N); made in house
In words: Ub-AMC hydrolysis assay, USP14 Y476A mutant. It is filed as biochemical. As to conditions: 15 μM compound. An excerpt:
(§3) Supplementary information, Fig. S3 Structural and biochemical analyses of the three […]
(§4) (a) H426 of USP14 forms a hydrogen bind with R74 of Ub, while Y476 forms a hydrogen bound with D199. (b) The Y476K, Y476R and D199A point mutations all abolish the formation of USP14/Ub-PA complex. The result was visualized by SDS-PAGE and Coomassie blue staining. (c-f) Linear kinetics of Ub-AMC hydrolysis by USP14 WT, H426E, Y436A and […]
(§5) curves have R2>0.99. Error bars represent SDs.
(§6) (1 picture or pasted object on this page, not shown here)

A further series deals with T4, USP7 (Homo sapiens, UniProt Q93009).
T4 construct: 3 μM DUB protein (USP14^CAT, USP7^CAT, UCH-L1, or UCH-L3); made in house
T4 sequence (Q93009 214-521 limits assumed): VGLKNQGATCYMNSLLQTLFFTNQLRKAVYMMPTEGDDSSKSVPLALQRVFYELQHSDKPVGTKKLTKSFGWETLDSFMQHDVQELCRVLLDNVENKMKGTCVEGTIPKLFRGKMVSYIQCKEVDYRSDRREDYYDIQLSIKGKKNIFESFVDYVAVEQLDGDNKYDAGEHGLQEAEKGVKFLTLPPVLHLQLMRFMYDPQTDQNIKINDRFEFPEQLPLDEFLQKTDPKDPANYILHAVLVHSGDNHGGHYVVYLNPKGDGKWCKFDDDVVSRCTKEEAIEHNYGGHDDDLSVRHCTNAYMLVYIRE
In words: In vitro Ub-PA assay, USP7. To be noted: 5 mM compound, 3 μM DUB protein, 12 μM Ub-PA. It is filed as binding. Here is the method:
as §1, §2

The target of series [1] is T5, USP14 H426E (Homo sapiens, UniProt P54578, H426E). In words: Ub-AMC hydrolysis assay, USP14 H426E mutant. It is filed as biochemical. As to conditions: 15 μM compound. Details: Glutathione S-transferase (GST)-tagged full-length USP14; GST (N); made in house.
Source text: as §3, §4, §5, §6

In series [2] the target is T6, USP14 Y436A (Homo sapiens, UniProt P54578, Y436A). Put plainly: In vitro Ub-PA assay, USP14 Y436A mutant. It counts as binding. Details: catalytic domain (residues 96–494) of USP14 were cloned into the pGEX-6P-1 vector; GST (N); made in house.
Target sequence in this assay (P54578 96-494 Y436A): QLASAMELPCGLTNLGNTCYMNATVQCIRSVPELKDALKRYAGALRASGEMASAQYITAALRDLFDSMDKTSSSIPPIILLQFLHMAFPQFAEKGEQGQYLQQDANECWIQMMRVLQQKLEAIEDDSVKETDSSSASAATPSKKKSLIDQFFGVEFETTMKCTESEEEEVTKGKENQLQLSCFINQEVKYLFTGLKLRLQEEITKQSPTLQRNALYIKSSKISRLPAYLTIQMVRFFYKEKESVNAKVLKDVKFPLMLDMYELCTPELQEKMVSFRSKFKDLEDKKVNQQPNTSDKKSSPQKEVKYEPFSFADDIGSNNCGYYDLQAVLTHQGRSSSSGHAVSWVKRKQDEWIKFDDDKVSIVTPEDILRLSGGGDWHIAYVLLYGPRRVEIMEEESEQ
A further series concerns the target T7, USP14^CAT (Homo sapiens, UniProt P54578).
T7 construct: catalytic domain (residues 96–494) of USP14 were cloned into the pGEX-6P-1 vector; GST (N, cleaved yes); made in house
In words: In vitro Ub-PA assay, USP14^CAT. It is filed as binding. As to conditions: 5 mM compound, 3 μM USP14^CAT, preincubation 1 h 25 °C, 12 μM Ub-PA. Here is the method: All the results were visualized by SDS-PAGE and Coomassie blue staining. Ub-PA ubiquitin-propargylamide
We then turned to the biochemical Ub-PA (ubiquitin-propargylamide) assay. […] The covalent attachment of Ub-PA (8 kD) to USP14^CAT (45 kD) produced the novel USP14/Ub-PA complex with an increased molecular weight (53 kD).
as §2

The target of the next series is T8, USP14 (Homo sapiens, UniProt P54578).
T8 construct: Glutathione S-transferase (GST)-tagged full-length USP14; GST (N); made in house
In words: Kinetic analysis (Vm, Km) of Ub-AMC hydrolysis by USP14. It is filed as biochemical. To be noted: Km varied, Vm unchanged with inhibitor concentration. Here is the method: Menten plot of the concentration-dependence of Ub-AMC (1-48 μM) hydrolysis in the presence
The data were fit to a curve by nonlinear regression
as §6

For series [3], the target named is T6, USP14 Y436A. Put plainly: Ub-AMC hydrolysis assay, USP14 Y436A mutant. Details: Glutathione S-transferase (GST)-tagged full-length USP14; GST (N); made in house. It counts as biochemical. As to conditions: 15 μM compound.
Source text: as §3, §4, §5, §6

The target of another series is T9, USP7 F409A (Homo sapiens, UniProt Q93009, F409A).
T9 construct: made in house
T9 sequence (Q93009 whole entry F409A): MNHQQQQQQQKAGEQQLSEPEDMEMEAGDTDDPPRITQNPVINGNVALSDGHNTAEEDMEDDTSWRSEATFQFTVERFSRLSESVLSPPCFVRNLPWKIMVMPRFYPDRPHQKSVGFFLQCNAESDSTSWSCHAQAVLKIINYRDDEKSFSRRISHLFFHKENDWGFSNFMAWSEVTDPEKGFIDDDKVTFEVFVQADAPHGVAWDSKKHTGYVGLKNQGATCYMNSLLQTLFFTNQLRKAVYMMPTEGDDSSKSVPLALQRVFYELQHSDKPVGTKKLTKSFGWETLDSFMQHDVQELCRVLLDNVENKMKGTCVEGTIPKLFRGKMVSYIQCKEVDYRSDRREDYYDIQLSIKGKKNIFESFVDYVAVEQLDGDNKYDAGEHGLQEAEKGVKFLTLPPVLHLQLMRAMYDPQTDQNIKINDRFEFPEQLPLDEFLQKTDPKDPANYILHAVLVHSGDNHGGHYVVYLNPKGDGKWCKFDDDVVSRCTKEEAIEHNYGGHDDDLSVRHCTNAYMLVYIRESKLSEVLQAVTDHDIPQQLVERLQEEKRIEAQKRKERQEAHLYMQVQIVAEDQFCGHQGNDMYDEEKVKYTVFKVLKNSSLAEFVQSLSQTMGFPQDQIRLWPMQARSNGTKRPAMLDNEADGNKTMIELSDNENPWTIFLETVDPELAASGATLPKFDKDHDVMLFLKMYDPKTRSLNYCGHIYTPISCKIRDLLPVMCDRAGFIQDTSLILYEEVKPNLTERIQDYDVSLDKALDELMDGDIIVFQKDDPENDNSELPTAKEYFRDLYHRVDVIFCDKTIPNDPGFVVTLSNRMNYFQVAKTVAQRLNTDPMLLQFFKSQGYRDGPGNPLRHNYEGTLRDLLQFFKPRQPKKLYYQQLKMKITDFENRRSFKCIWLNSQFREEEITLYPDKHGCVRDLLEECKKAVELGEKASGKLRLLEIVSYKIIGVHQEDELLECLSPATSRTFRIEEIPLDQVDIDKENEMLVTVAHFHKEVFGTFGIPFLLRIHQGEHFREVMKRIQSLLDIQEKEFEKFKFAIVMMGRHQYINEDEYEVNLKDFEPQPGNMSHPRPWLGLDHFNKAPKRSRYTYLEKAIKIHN
Put plainly: Ub-AMC hydrolysis assay, USP7 F409A. As to conditions: 100 μM compound. It is filed as biochemical.
Source text: To explain the selectivity of IU1, we first compared the sequence conservation among the USP family. USP14 shares homology with USP2, IsoT, USP7, and USP15, ranging from 28% to 35%, in the catalytic domain. […] First, we compared the structure of USP14^CAT-IU1 with that of apo USP7 (Fig. 3a, b). H426 and Y436 in USP14 aligned well with the corresponding residues in USP7. […] Consistent with this scenario, when we compared the primary sequence and structure of USP14^CAT-IU1 with UCH-L1 and UCH-L3, neither the primary sequence nor the structure of USP14 aligned well with UCH-L1 or UCH-L3 (Fig. 3e, f).
as §1

Series [4] has as its target T5, USP14 H426E. In words: In vitro Ub-PA assay, USP14 H426E mutant. It is filed as binding. Details: catalytic domain (residues 96–494) of USP14 were cloned into the pGEX-6P-1 vector; GST (N); made in house.
Target sequence in this assay (P54578 96-494 H426E): as the sequence (P54578 96-494 Y436A) above, with H331E, A341Y counted along it
In another series the target is T10, UCH-L1 (Homo sapiens, UniProt P09936).
T10 construct: made in house
T10 sequence (P09936 1-223): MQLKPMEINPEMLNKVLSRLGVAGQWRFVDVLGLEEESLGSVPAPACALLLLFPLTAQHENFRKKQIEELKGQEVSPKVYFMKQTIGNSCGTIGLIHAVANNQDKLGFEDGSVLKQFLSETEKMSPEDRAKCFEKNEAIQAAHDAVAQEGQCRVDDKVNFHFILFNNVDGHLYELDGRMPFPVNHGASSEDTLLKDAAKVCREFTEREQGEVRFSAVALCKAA
In words: In vitro Ub-PA assay, UCH-L1. As to conditions: 5 mM compound, 3 μM DUB protein, 12 μM Ub-PA. It counts as binding. Here is the method:
as §1, §2

Structures are written as SMILES.

T7 sequence (P54578 96-494): as the sequence (P54578 96-494 Y436A) above, with A341Y counted along it
Experimental for proteasome-bound USP14: It was used to measure the deubiquitinating activity of USP14 variants. The deubiquitination assay was performed by following a published protocol.[7] […] To start the reaction, 1 μM Ub-AMC was added to the system. […] Fluorescence intensity was recorded every 30 s for 15 min. Each experiment was repeated three times, and the average value was calculated.
curves for small-molecule-mediated inhibition of the Ub-AMC hydrolysis activity of
1 nM proteasome. (d-f) Dose-response curves for small-molecule-mediated inhibition of the
Ub-AMC hydrolysis activity of IsoT. The reaction system contained 1 μM Ub-AMC and 10
nM IsoT. All the values correspond to the averages of triplicate experiments.

Turning to `Cc1cc(C(=O)CN2CCCCC2)c(C)n1-c1ccc(Cl)cc1` [IU1-47], the IC50 was determined as 29.1 µM on IsoT and 680 nM on proteasome-bound USP14 (read-out: IC50 USP14, 1 μM Ub-AMC, 15 nM USP14, 1 nM proteasome). Also, at proteasome-bound USP14 (ratio of IC50 values IsoT/USP14), the IsoT/USP14 worked out at 42.85.
Regarding `Cc1cc(C(=O)CN2CCCC2)c(C)n1-c1ccc(F)cc1` [IU1], the Solubility result in “Solubility” is listed as “poor solubility”. The compound also registered an IC50 at IsoT of 143 µM. Also, at UCH-L3, the “Inhibition of binding of Ub-PA to UCH-L3” value is recorded as “did not inhibit”. Besides, on USP14 Y476A, the “Inhibition of Ub-AMC hydrolysis activity of USP14 Y476A” value is “no inhibition”. Also, the “Inhibition of binding of Ub-PA to USP7” value at USP7 is “did not inhibit”. Also, the “Inhibition of Ub-AMC hydrolysis activity of USP14 H426E” value on USP14 H426E [1] is given as “no inhibition”. The “Inhibition of Ub-PA binding to USP14 Y436A” value on USP14 Y436A [2] (5 mM IU1) is “could not be inhibited”. Moreover, on USP14^CAT, the “Inhibition of formation of USP14/Ub-PA complex” value is on record as “significantly inhibited”. Further, the “Mode of inhibition of USP14” value at USP14 is given as “competitive inhibitor”. In addition, the “Inhibition of Ub-AMC hydrolysis activity of USP14 Y436A” value at USP14 Y436A [3] is on record as “no inhibition”. The “Effect on Ub-AMC hydrolysis activity of USP7 F409A” value on USP7 F409A is “decreased”. Also, the “Inhibition of Ub-PA binding to USP14 H426E” value at USP14 H426E [4] (5 mM IU1) was “could not be inhibited”. Besides, the “Inhibition of binding of Ub-PA to UCH-L1” value on UCH-L1 is given as “did not inhibit”.
For `Cc1cc(C(=O)CN2CCC(O)CC2)c(C)n1-c1ccc(C#N)cc1` [IU1-248, 1-[1-(4-cyanophenyl)-2,5-dimethyl-1H-pyrrol-3-yl]-2-(4-hydroxyl) piperidylethan-1-one], the Solubility entry in “Solubility” is “significantly improved solubility”. Further, the midpoint of inhibition at IsoT, the IC50, lay at 21.5 µM. Also, the “Inhibition of Ub-PA binding to USP14 Y436A” value on USP14 Y436A [2] (2.5 mM IU1-248) was “abolished the inhibitory effect”. Further, the “Mode of inhibition of USP14” value on USP14 is reported as “competitive mechanism”. Further, the “Inhibition of Ub-PA binding to USP14 H426E” value at USP14 H426E [4] (2.5 mM IU1-248) is recorded as “abolished the inhibitory effect”.
